# Structures can show the parent of a compound that is named as a salt. Where two headings read alike, the source gives them in different places.
# What was measured:
# [1] = tested on: carrageenin-induced pleural exudate; PMN cell migration; conditions: oral, cited from earlier work; for migration of cells into the pleural cavity: PMN cells vs monocytes, thought in 1975
# human synovial cells = conditions: stimulated by interleukin-1 and TNF-a; cited from earlier work
# TXB2 synthesis = TXB2 synthesis inhibition in human blood; type: cell-based; conditions: index of platelet antiaggregating properties
# [2] = tested on: interleukin IL-8 production; conditions: reduced from 53.8 pg/ml, p<0.1, cited from earlier work
# [3] = tested on: ultra-violet radiation-induced epidermal erythema; conditions: topic; guinea pigs; cited from earlier work
# neutrophil = conditions: Ca^++ ionophore and FLMP; cited from earlier work
# MCP-1 and IL-8 release = conditions: comparative study; cited from earlier work
# hyperalgesia = experiment: animal or person; conditions: for inhibitory effect on hyperalgesia: 25 to 750 mmoles/kg
# Description: In order to predict the therapeutic effect of the racemates in men, it is necessary to know how much the single enantiomers contribute to the global activity, using experimental models excluding metabolic bio-conversion. […] This model allows the contemporary evaluation of the inhibition of oedema formation and of hyperalgesia.
# [4] = tested on: mouse peritoneal macrophages; experiment: lipopolysaccharide-stimulated IL-1b release from mouse peritoneal macrophages; type: cell-based; conditions: Mus musculus, Peritoneal macrophage, read-out: concentration of statistically significant stimulation of IL-1b formation
# [5] = gastric ulcer-inducing properties in rats (ulcer score); type: in vivo; conditions: 40 mmoles/kg; rat
# Description: Guinea-pigs are a species naturally resistant to the gastrolesive action of NSAIDs, so that it is not possible to compare the two enantiomers in respect to this parameter in this species, unless using very high doses, having no predictive value. To this purpose, rats are necessarily, again, the chosen species, although the least suitable. […] The differences among the enantiomers and the racemate were statistically significant starting from the dose of […]: at this dose an "ulcer score" of 2 was evaluated for the (R) enantiomer, compared with "ulcer scores" of 3 and 4 for the racemate and the (S) enantiomer, respectively.
# oedema formation [6] = tested on: oedema formation
# pain perception = conditions: men; compared with (S) enantiomers; cited from earlier work
# [7] = men, cited from earlier work
# [8] = guinea-pigs; cited from earlier work
# [9] = rats; in words; cited from earlier work
# PMN neutrophils = conditions: FLMP-stimulated vs other agonist-stimulated; cited from earlier work
# human PMN neutrophils [10] = experiment: [Ca^++ ]i increase induced by FMLP in human PMN neutrophils; type: cell-based; conditions: FLMP 10^-7 M; % of basal (100%); no treatment 208 ± 7
# Description: (§1) Results are expressed as percent of the basal value of [Ca^++ ]i and are the mean from the values of all responsive cells. Standard error of the mean (SEM) and number of replications (n, in brackets) are also reported.
# Neutrophils = conditions: 10^-6 M, 10 min 37° C; FIG. 2, ** p<0.01
# Description: Results are expressed as the mean ±SD from 3 separated trials (** p<0.01 against each group).
# human PMN leukocytes = experiment: [Ca^++ ]i increase induced by IL-8 in human PMN leukocytes; type: cell-based; conditions: IL-8 50 ng/ml, % of basal [Ca^++ ]i (basal 100%), no drug 302 ± 11
# Description: The results reported in Table 1 are cumulative data obtained from 8 trials (8 donors who gave their explicit consent, 3 to 7 cells per specimen). […] The responses, expressed as percent of basal value of [Ca^++ ]i, are the mean from all responsive cells; standard error of the mean (±SEM) and number of replications (in brackets) are also reported. […] IL-8 concentration was 50 ng/ml.
# [11] = tested on: Ca^++ channels, human PMN neutrophils; experiment: competition study with lanthanum ions: [Ca^++ ]i increase induced by IL-8, role of Ca^++ channels; type: cell-based; conditions: ketoprofen L-lysine salt 10^-8 M; La^+++ 10 μM; IL-8 50 ng/ml; % of basal (100%)
# Description: Results reported in Table 2 are the cumulative values from 3 trials (3 donors, 3-7 cells per specimen). […] Responses are expressed as percent of basal [Ca^++ ]i value and are the mean from the values of all responsive cells. Standard error of the mean (SEM) and number of replications (in brackets) are also reported. […] The concentration of ketoprofen L-lysine salt was 10^-8 M, that of La^+++ 10 μM, and that of IL-8 50 ng/ml.
# human PMN neutrophils [12] = experiment: IL-8-stimulated human PMN neutrophil degranulation (elastase release), FIG. 1; type: cell-based; conditions: IL-8 50 ng/ml, cytoclasin B 10^-5 M, 30 min 37° C; FIG. 1, ** p<0.05 against IL-8
# Description: Human PMN neutrophils (10^7 /ml) were stimulated in the presence of cytoclasin B (10^-5 M) by adding IL-8 (50 ng/ml) and incubating them for 30 min at 37° C. La^+++ was added 5 min before IL-8 and the lysine salts of (R)- and (S)-ketoprofen 15 min before IL-8. Degranulation was evaluated based on the amount of elastase released in the cell-free surnatant and is expressed as DOD×10^3 /min.
# oedema formation [13] = experiment: animal or person; conditions: Cavia porcellus, read-out: dose from which oedema inhibition is statistically significant
# human PMN neutrophils [14] = experiment: [Ca^++ ]i increase induced by C5a in human PMN neutrophils; type: cell-based
# Description: as §1
structure (smiles),measurement,setting,value
COc1ccc2c(c1)c(CC(=O)O)c(C)n2C(=O)c1ccc(Cl)cc1 [indomethacin],migration of cells into the pleural cavity,[1],"inhibit the migration of PMN cells, but not that of monocytes"
same,carrageenin-induced formation of pleural exudate,[1],inhibited
same,IL-8 production in human synovial cells,human synovial cells,not inhibited
CC(C(=O)O)c1cccc(C(=O)c2ccccc2)c1 (racemic) [racemic ketoprofen],IC50,TXB2 synthesis,420 ± 40 µM
same,interleukin IL-8 production,[2]; 100 mg/kg,16.9 pg/mL
same,interleukin IL-8 production,[2]; 200 mg/kg,22.4 pg/mL
same,"Protection, UV radiation-induced epidermal erythema",[3],56.1±3.1%
CN1C(C(=O)Nc2nccs2)=C(O)c2ccccc2S1(=O)=O [sudoxicam],migration of cells into the pleural cavity,[1],"inhibit the migration of PMN cells, but not that of monocytes"
same,carrageenin-induced formation of pleural exudate,[1],inhibited
Cc1c(Cl)cccc1Nc1ccccc1C(=O)O [tolfenamic acid],inhibition of neutrophil activation / blockade of Ca^++ ion entry,neutrophil,inhibition of neutrophil activation
COc1ccc2cc([C@H](C)C(=O)O)ccc2c1 [naproxen],IL-8 production in human synovial cells,human synovial cells,not inhibited
O=C([O-])CC(S)C(=O)[O-].[Na+].[Na+] (stereo not drawn) [sodium thiomalate],inhibition of release of MCP-1 and IL-8,MCP-1 and IL-8 release,in a sub-optimal manner
O=C(O)c1ccccc1Nc1cccc(C(F)(F)F)c1 [flufenamic acid],inhibition of neutrophil activation / blockade of Ca^++ ion entry,neutrophil,inhibition of neutrophil activation
C[C@H](C(=O)O)c1cccc(C(=O)c2ccccc2)c1 [(S)-ketoprofen],IC50,TXB2 synthesis,160 ± 40 µM
same,"Protection, UV radiation-induced epidermal erythema",[3],73.4±4.0%
COC(=O)C1=C(C)NC(C)=C(C(=O)OC)C1c1ccccc1[N+](=O)[O-] [nifedipine],inhibition of neutrophil activation / blockade of Ca^++ ion entry,neutrophil,completely inactive
CC(C(=O)O)c1ccc(C(=O)c2ccccc2)s1 (stereo not drawn) [thioprofenic acid],IL-8 production in human synovial cells,human synovial cells,not inhibited
CC(C(=O)O)c1cccc(C(=O)c2ccccc2)c1 (racemic) [racemic ketoprofen L-lysine salt],inhibitory effect on hyperalgesia,hyperalgesia,constantly intermediate between those evaluated for the two enantiomers
same,minimal effective concentration,[4],10 µM
same,ulcer score,[5],3
same,inhibition of oedema formation,oedema formation [6]; 25 to 750 mmoles/kg,constantly intermediate between those evaluated for the two enantiomers
"C[C@@H](C(=O)O)c1ccc(-c2ccccc2)c(F)c1 [(R)-flurbiprofen, 3-fluoro-4-phenylhydratropic acid]",inhibition of pain perception,pain perception,efficacy at least similar to that of the (S) enantiomers
same,conversion of (R) into (S) enantiomer,[7],< 5%
same,conversion of (R) into (S) enantiomer,[8],< 5%
same,conversion of (R) into (S) enantiomer,[9],completely converted
C[C@@H]1C[C@H]2[C@@H]3CCC4=CC(=O)C=C[C@]4(C)[C@@]3(F)[C@@H](O)C[C@]2(C)[C@@]1(O)C(=O)CO [dexamethasone],inhibition of release of MCP-1 and IL-8,MCP-1 and IL-8 release,in an optimal manner
"CC(C)C[C@H](NC(=O)OCC1c2ccccc2-c2ccccc21)C(=O)O [NPC-15669, N-Fmoc-L-leucine]",[Ca^++ ]i increase in PMN neutrophils,PMN neutrophils,"inhibited FLMP-stimulated, but not other agonist-stimulated [Ca^++ ]i increase"
"CC(C(=O)O)c1ccc(-c2ccccc2)c(F)c1 (racemic) [flurbiprofen, 3-fluoro-4-phenylhydratropic acid]",migration of cells into the pleural cavity,[1],"inhibit the migration of PMN cells, but not that of monocytes"
same,carrageenin-induced formation of pleural exudate,[1],inhibited
CN(Cc1cnc2nc(N)nc(N)c2n1)c1ccc(C(=O)N[C@@H](CCC(=O)O)C(=O)O)cc1 [metotrexate],inhibition of release of MCP-1 and IL-8,MCP-1 and IL-8 release,in a sub-optimal manner
C[C@H](C(=O)O)c1cccc(C(=O)c2ccccc2)c1 [(S)-ketoprofen L-lysine salt],FMLP [Ca^++ ]i (% ± SEM),human PMN neutrophils [10],214 ± 13%
same,inhibitory effect on IL-8-stimulated chemotactic migration,Neutrophils,specific inhibitory effects
same,[Ca^++ ]i (% ± SEM),human PMN leukocytes; drug 10^-6 M,163 ± 18%
same,[Ca^++ ]i (% ± SEM),human PMN leukocytes; drug 10^-7 M,199 ± 13%
same,[Ca^++ ]i (% ± SEM),human PMN leukocytes; drug 10^-8 M,183 ± 5%
same,[Ca^++ ]i (% ± SEM),human PMN leukocytes; drug 10^-9 M,289 ± 19%
same,La^+++ + IL-8 [Ca^++ ]i (% ± SEM),[11],166 ± 7%
same,inhibitory effect on hyperalgesia,hyperalgesia,only a slight inhibitory effect on hyperalgesia
same,minimal effective dose,"hyperalgesia; Cavia porcellus, read-out: dose with statistically significant inhibition of hyperalgesia",750000 µmol/kg
same,inhibitory effect on human PMN neutrophil degranulation (elastase release),human PMN neutrophils [12],specific inhibitory effects
same,minimal effective concentration,[4],10 µM
same,ulcer score,[5],4
same,minimal effective dose,oedema formation [13],75000 µmol/kg
same,C5a [Ca^++ ]i (% ± SEM),"human PMN neutrophils [14]; C5a 10^-8 M, % of basal (100%), no treatment 198 ± 10",150 ± 4%
same,percent of non responsive cells,human PMN neutrophils [14]; C5a stimulation and treatment with the L-lysine salts,50%
same,dose of maximal effect on oedema formation,oedema formation [6]; dose range 25 to 750 mmoles/kg,250 mmol/kg
"CC(C)Cc1ccc([C@@H](C)C(=O)O)cc1 [(R)-ibuprofen, p-isobutylhydratropic acid]",conversion of (R) into (S) enantiomer,[7]; in words,nearly completely converted
same,conversion of (R) into (S) enantiomer,[9],nearly completely converted
CN1C(C(=O)Nc2ccccn2)=C(O)c2ccccc2S1(=O)=O [piroxicam],IL-8 production in human synovial cells,human synovial cells,not inhibited
CC(C(=O)O)c1cccc(Oc2ccccc2)c1 (stereo not drawn) [fenofren],migration of cells into the pleural cavity,[1],"inhibit the migration of PMN cells, but not that of monocytes"
same,carrageenin-induced formation of pleural exudate,[1],inhibited
